# Measurements reported in PMC6155437 (Molecules : A Journal of Synthetic Chemistry and Natural …, 2017).
# Entries after “also recorded” stand apart in the source; their conditions may differ.
# Legend:
# Type in all cases: in vitro ADME
# CYP3A4 = CYP3A4 (Homo sapiens, UniProt P08684); test: CYP3A4 midazolam 1′-hydroxylase inhibition in human liver microsomes; set-up: tissue Corning Life Sciences; host or cells: pooled human liver microsomes (150 donors)
# Procedure: (§1) After a 3-min pre-incubation at 37 °C, the reactions were initiated by addition of NADPH and incubation proceeded for 15 min at 37 °C in a shaking water bath. […] The incubation mixtures were centrifuged (13,000× g, 4 min, 4 °C). All assays were performed in triplicate and mean values were used in calculations.
# (§2) Each reaction was initiated by adding the seven-CYP probe substrate cocktail.
# The reactions were initiated by addition of NADPH at 37 °C and stopped after 10 min by placing the incubation tubes on ice and adding 100 μL of ice-cold methanol containing an internal standard (d9-1-hydroxybufuralol). The incubation mixtures were centrifuged (13,000× g, 4 min, 4 °C) and then 50 μL of the supernatant was diluted with 50 μL of water. Aliquots (5 μL) of the diluted supernatants were analyzed by LC-MS/MS.
# (§3) The metabolites formed from CYP substrates were quantified simultaneously by a LC-MS/MS method described previously. The ESI source settings in positive-ion mode for metabolite ionization were: capillary voltage, 4200 V; vaporizer temperature, 350 °C; capillary temperature, 330 °C; sheath gas pressure, 35 psi; and auxiliary gas pressure, 15 psi. Quantification was performed by selected reaction monitoring (SRM) of the [M + H]^+ ion and the related product ion for each metabolite: acetaminophen, 152.1 > 110.3; N-desethylamodiaquine, 328.1 > 283.0; 7-hydroxycoumarin, 163.0 > 107.2; 4-hydroxybupropion, 256.1 > 238.0; 4′-hydroxydiclofenac, 312.0 > 231.1; 4′-hydroxy-mephenytoin; 235.1 > 150.1; 1′-hydroxybufuralol, 278.1 > 186.1; 1′-hydroxymidazolam, 341.9 > 324.0; ^13C2,^15N-acetaminophen 155.1 > 111.2; and d9-1′-hydroxybufuralol, 287.2 > 187.0. Analytical data were processed using Xcalibur software (version 2.1, Thermo Scientific).
# (§4) The apparent kinetic parameters for inhibitory potential (Ki and kinact values) and inhibition mode were estimated from the fitted curves using the Enzyme Kinetics program (ver. 1.1; Systat Software Inc., San Jose, CA, USA).
# CYP2C8 = target: T1, CYP2C8 (Homo sapiens, UniProt P10632); test: CYP2C8 amodiaquine N-deethylase inhibition and mechanism-based inactivation in human liver microsomes; conditions: for IC50: Amodiaquine N-deethylase
# T1 construct: tissue Corning Life Sciences; host or cells: pooled human liver microsomes (150 donors)
# T1 sequence (P10632 1-490): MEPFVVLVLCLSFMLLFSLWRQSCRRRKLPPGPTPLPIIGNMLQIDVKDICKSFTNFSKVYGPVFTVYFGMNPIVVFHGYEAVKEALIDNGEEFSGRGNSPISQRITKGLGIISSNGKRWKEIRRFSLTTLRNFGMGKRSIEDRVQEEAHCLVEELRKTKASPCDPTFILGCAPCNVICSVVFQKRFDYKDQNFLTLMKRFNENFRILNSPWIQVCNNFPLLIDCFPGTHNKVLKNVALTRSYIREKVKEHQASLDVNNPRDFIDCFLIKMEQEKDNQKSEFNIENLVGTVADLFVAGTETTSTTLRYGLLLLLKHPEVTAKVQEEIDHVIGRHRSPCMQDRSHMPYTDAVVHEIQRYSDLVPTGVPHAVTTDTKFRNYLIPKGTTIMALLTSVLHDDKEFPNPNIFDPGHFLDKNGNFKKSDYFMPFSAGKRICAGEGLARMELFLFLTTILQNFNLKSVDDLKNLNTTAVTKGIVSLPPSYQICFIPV
# Procedure: as §1, §2
# The second reaction was terminated after incubation for 10 min by adding 100-µL amounts of ice-cold methanol containing d9-1′-hydroxybufuralol. The incubation mixtures were centrifuged (13,000× g, 4 min, 4 °C), and then 50 µL of each supernatant was diluted with 50 µL of water. Aliquots (5 µL) of the diluted supernatants were analyzed by LC-MS/MS.
# as §3, §4
# UGT1A1 = target: T2, UGT1A1 (Homo sapiens, UniProt P22309); test: UGT1A1 SN-38 glucuronidation inhibition in ultrapool human liver microsomes; conditions: at 50 µM
# T2 construct: pooled human liver microsomes (0.2 mg/mL), 5 mM UDPGA; tissue Corning Life Sciences; host or cells: pooled human liver microsomes (150 donors)
# T2 sequence (P22309 26-533): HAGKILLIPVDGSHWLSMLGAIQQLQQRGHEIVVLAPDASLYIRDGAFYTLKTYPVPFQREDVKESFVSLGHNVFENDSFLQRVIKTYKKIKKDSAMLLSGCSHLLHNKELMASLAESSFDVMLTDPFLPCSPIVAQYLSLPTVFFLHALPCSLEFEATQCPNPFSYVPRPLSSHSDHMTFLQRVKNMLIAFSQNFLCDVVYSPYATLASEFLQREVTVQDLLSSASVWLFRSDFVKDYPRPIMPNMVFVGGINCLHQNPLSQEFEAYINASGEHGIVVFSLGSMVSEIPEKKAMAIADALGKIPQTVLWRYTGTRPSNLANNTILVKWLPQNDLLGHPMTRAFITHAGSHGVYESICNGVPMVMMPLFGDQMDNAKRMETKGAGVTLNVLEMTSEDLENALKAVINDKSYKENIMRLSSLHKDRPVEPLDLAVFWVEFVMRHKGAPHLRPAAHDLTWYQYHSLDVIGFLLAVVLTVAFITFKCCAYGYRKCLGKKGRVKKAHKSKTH
# Procedure: After 3 min of pre-incubation at 37 °C, the reactions were initiated by addition of UDPGA; incubation continued for 60 min at 37 °C in a shaking water bath. The reaction was stopped by placing the tubes on ice and adding 50 µL ice-cold acetonitrile containing internal standards (propofol glucuronide for chenodeoxycholic acid 24-acyl-β-glucuronide and mycophenolic acid glucuronide, and meloxicam for SN-38 glucuronide, trifluoperazine glucuronide, N-acetylserotonin β-D-glucuronide, and naloxone 3-β-D-glucuronide). The incubation mixtures were centrifuged (13,000× g, 4 min, 4 °C). All assays were performed in triplicate and average values were used in calculations.
# The metabolites formed from the six UGT cocktail substrates were measured simultaneously using the LC-MS/MS method. The ESI source settings in both positive- and negative-ion modes for metabolite ionization were: capillary voltage, 4200 V; vaporizer temperature, 350 °C; capillary temperature, 330 °C; sheath gas pressure, 35 psi; and auxiliary gas pressure, 15 psi. […] Data were processed using Xcalibur software.
# as §4
# CYP3A4, sequence (P08684 whole entry): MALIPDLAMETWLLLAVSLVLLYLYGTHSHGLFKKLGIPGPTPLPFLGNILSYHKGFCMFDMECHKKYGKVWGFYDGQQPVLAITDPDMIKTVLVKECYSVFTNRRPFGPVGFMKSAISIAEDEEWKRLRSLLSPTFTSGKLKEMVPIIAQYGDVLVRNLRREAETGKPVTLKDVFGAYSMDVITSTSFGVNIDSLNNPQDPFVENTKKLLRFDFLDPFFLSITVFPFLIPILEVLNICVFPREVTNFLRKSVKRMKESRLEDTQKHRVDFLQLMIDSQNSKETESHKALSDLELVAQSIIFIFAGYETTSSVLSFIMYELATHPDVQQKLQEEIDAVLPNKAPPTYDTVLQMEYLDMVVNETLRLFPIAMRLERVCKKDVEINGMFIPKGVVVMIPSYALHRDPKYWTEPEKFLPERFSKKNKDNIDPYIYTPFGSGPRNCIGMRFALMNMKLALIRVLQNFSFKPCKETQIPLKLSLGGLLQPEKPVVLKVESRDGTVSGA
smiles,measurement,setting,value
"O=C(c1cccc2ccccc12)c1cn(CCCCCF)c2ccccc12 [AM-2201, 1-(5-fluoropentyl-1H-indol-3-yl)-(naphthalene-1-yl)methanone]",Ki,CYP3A4,4 µM
same,Inhibition Mode,CYP3A4; CYP3A4 midazolam 1′-hydroxylation,competitively inhibited; also recorded: competitive
same,IC50,"CYP3A4; IC50 (μM) No Preincubation, Midazolam 1′-hydroxylase, CYP3A4, human liver microsomes, 2.5 μM midazolam",6.9 µM
same,IC50,"CYP3A4; IC50 (μM) With Preincubation, Midazolam 1′-hydroxylase, CYP3A4, 30 min preincubation with NADPH",3.8 µM
same,IC50,"CYP3A4; IC50, CYP3A4-catalyzed midazolam 1′-hydroxylation, abstract",4 µM
same,Ki,CYP2C8,2.1 µM
same,Inhibition Mode,CYP2C8; CYP2C8 amodiaquine N-deethylation,mechanism-based inhibitor
same,IC50,"CYP2C8; IC50 (μM) No Preincubation, CYP2C8, human liver microsomes, 2.5 μM amodiaquine",53.8 µM
same,IC50,"CYP2C8; IC50 (μM) With Preincubation, CYP2C8, 30 min preincubation with NADPH",6.9 µM
same,inhibition of UGT1A1-catalyzed SN-38 glucuronidation,UGT1A1,negligibly inhibited
